A word on the inhibition: it is the relative decrease from the control value, in per cent. High values mean a strong effect, low ones a weak effect.

This is an account of results in patent publication US20260174786A1, “A NITROGEN-CONTAINING SPIROCYCLIC COMPOUND, PHARMACEUTICAL COMPOSITION AND USE THEREOF” (Prime Gene Therapeutics Co., Ltd., priority 2022, published 2026).

The assay has as its target T1, hTRPV3 (Homo sapiens, UniProt Q8NET8).
T1 construct: expressed in transfected cells; host or cells: HEK-293
T1 sequence (Q8NET8 1-790): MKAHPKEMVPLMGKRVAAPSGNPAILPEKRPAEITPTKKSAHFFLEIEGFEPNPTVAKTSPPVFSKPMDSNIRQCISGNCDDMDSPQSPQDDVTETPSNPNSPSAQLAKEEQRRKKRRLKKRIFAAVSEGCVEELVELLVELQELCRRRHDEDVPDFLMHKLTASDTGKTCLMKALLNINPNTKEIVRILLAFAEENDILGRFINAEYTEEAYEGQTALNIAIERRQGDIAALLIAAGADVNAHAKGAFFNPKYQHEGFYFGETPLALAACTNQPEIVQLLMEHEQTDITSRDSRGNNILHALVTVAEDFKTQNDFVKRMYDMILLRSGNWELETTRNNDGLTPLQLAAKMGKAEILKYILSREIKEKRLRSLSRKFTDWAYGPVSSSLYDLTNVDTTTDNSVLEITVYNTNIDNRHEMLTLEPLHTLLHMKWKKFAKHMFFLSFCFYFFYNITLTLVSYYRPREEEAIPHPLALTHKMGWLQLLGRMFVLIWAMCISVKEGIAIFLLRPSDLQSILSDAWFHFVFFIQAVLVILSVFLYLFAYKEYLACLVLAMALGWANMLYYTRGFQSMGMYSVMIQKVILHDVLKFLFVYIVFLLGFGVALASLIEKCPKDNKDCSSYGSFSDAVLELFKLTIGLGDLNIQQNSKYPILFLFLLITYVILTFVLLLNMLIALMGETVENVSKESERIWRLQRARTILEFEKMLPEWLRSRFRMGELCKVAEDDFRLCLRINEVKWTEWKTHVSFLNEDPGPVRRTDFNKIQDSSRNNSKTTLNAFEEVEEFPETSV
The experiment in a line: Whole cell patch clamp inhibition rate test on HEK-293 cells instantaneously expressing TRPV3. Format: cell-based. Particulars: HEK293; hTRPV3, single concentration 0.3 μM. As to the method:
In this study, HEK-293 cells instantaneously expressing TRPV3 were used for experimental detection.
The operation steps are as follows:
The cells were cultured in DMEM medium containing 10% fetal bovine serum at a temperature of 37° C. and a carbon dioxide concentration of 5%.
Day 1: Cells were inoculated into a 6-well plate with 5×10^5 cells per well.
Day 2: Transfection was performed using Lipofectamine 3000 transfection reagent, with a plasmid to transfection reagent ratio of 1 μg: 2 μL. The total amount of plasmid used per well was 3 μg. Specifically, two sterile centrifuge tubes were taken and 100 μL Opti-MEM was added to each tube. 6 μL Lipofectamine 3000 was added to one tube and mixed well; and 3 μg plasmid was added to another tube and mixed well, and then 6 μL P3000 was added and mixed well; Subsequently, the diluted plasmid DNA was added to diluted Lipofectamine 3000 and incubated at room temperature for 10-15 min. DNA liposome complex was dropped into the cells, shaked gently and mixed well, and then cultured in an incubator. The liquid was changed after 4 to 6 h.
Day 3: The cells were digested and seeded into 24 well plates with pre-placed cover slides, with 8×10^3 cells per well.
Day 4: Patch clamp testing was performed.
The voltage stimulation protocol for recording TRPV3 current using whole cell patch clamp is as follows: after forming a whole cell seal, a cell membrane voltage clamp was set at −80 mV. Firstly, a membrane potential was recorded at 0 mV, and then a voltage was command to start from −100 mV, to depolarize in the form of Ramp to 100 mV within 100 ms, and finally restore to 0 mV. Data collection was repeated every 5 seconds to observe the inhibitory effect of pharmaceutical on peak current. Experimental data was collected by EPC 10 amplifier (HEKA) and stored in PatchMaster (HEKA) software.
A microelectrode puller was used to pull the capillary glass tube into a recording electrode. The electrode filled with intracellular fluid was inserted into a microelectrode holder, and a microelectrode manipulator was operated under an inverted microscope to immerse the electrode in extracellular fluid and an electrode resistance (Rpip) was recorded. The electrode was brought into contact with the cell surface and a negative pressure suction was applied to form a high resistance seal (GΩ). At this point, a fast capacitance compensation was performed, and negative pressure was continued to apply in order to break the cell membrane, so that a whole cell recording mode was formed. Then, a slow capacitance compensation was performed and experimental parameters such as film capacitance (Cm) and series resistance (Rs) were recorded. No leakage compensation was provided.
When the TRPV3 current recorded by the whole cell had stabilized, administration was started. Each pharmaceutical concentration acted for 5 minutes (or until the current stabilized) before detecting the next concentration. A plurality of concentrations was tested for each test compound. A cover glass covered with cells was placed in a recording bath under an inverted microscope. A blank control extracellular solution and a working fluid for the compound to be tested sequentially flowed through the recording bath from low concentration to high concentration using gravity perfusion to act on the cells. Liquid exchange was performed using a peristaltic pump during recording. The current detected by each cell in the extracellular fluid without the compound served as its own control group. Each concentration was independently tested twice using at least two cells. All electrophysiological tests were conducted at room temperature.
Background: In patch-clamp work, channel activity is measured electrically.

In the case of `O=C(c1ccc(Cl)cn1)N1CCC2(CCC(O)c3cc(-c4ccccc4C4CC4)ccc32)C1` (stereo not drawn) [Example 2, (5-chloropyridin-2-yl)(6-(2-cyclopropylphenyl)-4-hydroxy-3,4-dihydro-2H-spiro[naphthalene-1,3′-pyrrolidine]-1′-yl) ketone], the inhibition at 0.3 µM was below 25%.
To `CC(C)c1ccccc1-c1ccc2c(c1)C(O)CC21CCN(C(=O)c2cocn2)C1` (stereo not drawn) [Example 70, (3-hydroxy-5-(2-isopropylphenyl)-2,3-dihydrospiro[indene-1,3′-pyrrolidine]-1′-yl)(oxazol-4-yl)ketone] belongs 50 to 70%; to `COCc1cnc(C(=O)N2CCC3(CC(O)c4cc(-c5ccccc5C(C)C)ccc43)C2)cn1` (stereo not drawn) [Example 69, (3-hydroxy-5-(2-isopropylphenyl)-2,3-dihydrospiro[indene-1,3′-pyrrolidine]-1′-yl)(5-(methoxymethyl)pyrazin-2-yl)ketone], below 25%.
For the compound `O=C(c1csc(Cl)n1)N1CCC2(CC(O)c3cc(-c4ccccc4C4CC4)ccc32)C1` (stereo not drawn) [Example 17, (2-chlorothiazol-4-yl)(5-(2-cyclopropylphenyl)-3-hydroxy-2,3-dihydrospiro[indene-1,3′-pyrrolidine]-1′-yl) ketone], the inhibition at 0.3 µM was 70 to 100%.
To `O=C(c1cccc(C2CC2)n1)N1CC[C@]2(C[C@H](O)c3cc(-c4ccccc4C4CC4)ccc32)C1` [Example 40, ((1R,3S)-5-(2-cyclopropylphenyl)-3-hydroxy-2,3-dihydrospiro[indene-1,3′-pyrrolidine]-1′-yl)(6-cyclopropylpyridin-2-yl) ketone] belongs below 25%; to `CC(C)c1ccccc1-c1ccc2c(c1)[C@H](O)C[C@]21CCN(C(=O)c2cccc(C3CC3)n2)C1` [Example 42, (6-cyclopropylpyridin-2-yl)((1R,3R)-3-hydroxy-5-(2-isopropylphenyl)-2,3-dihydrospiro[indene-1,3′-pyrrolidine]-1′-yl)ketone], below 25%.
As for `CC(C)c1ccccc1-c1ccc2c(c1)[C@@H](O)C[C@@]21CCN(C(=O)c2cccc(C3CC3)n2)C1` [Example 43, (6-cyclopropylpyridin-2-yl)((1S,3S)-3-hydroxy-5-(2-isopropylphenyl)-2,3-dihydrospiro[indene-1,3′-pyrrolidine]-1′-yl)ketone], the inhibition at 0.3 µM was below 25%.
Then `OC1CC2(CCN(c3cnc4cc(F)ccn34)C2)c2ccc(-c3ccccc3C3CC3)cc21` (stereo not drawn) [Example 153, 5-(2-cyclopropylphenyl)-1′-(7-fluoroimidazo[1,2-a]pyridin-3-yl)-2,3-dihydrospiro[indene-1,3′-pyrrolidine]-3-ol], with 70 to 100%; and `CC(C)c1ccccc1-c1ccc2c(c1)C(O)CC21CC(=O)N(Cc2ccc(F)cn2)C1` (stereo not drawn) [Example 137, 1′-((5-fluoropyridin-2-yl)methyl)-3-hydroxy-5-(2-isopropylphenyl)-2,3-dihydrospiro[indene-1,3′-pyrrolidine]-5′-one], with below 25%.
For `COC(=O)C1CC2(CCN(C(=O)c3ccc(F)cn3)C2)c2ccc(-c3ccccc3C(C)C)cc21` (stereo not drawn) [Example 130, methyl 1′-(5-fluoropyridoyl)-5-(2-isopropylphenyl)-2,3-dihydrospiro[indene-1,3′-pyrrolidine]-3-carboxylate], the inhibition at 0.3 µM was below 25%.
On to `CC(C)c1ccccc1-c1ccc2c(c1)C(O)CC21CCN(C(=O)c2cccc(C3CC3)n2)C1` (stereo not drawn) [Example 20, (6-cyclopropylpyridin-2-yl)(3-hydroxy-5-(2-isopropylphenyl)-2,3-dihydrospiro[indene-1,3′-pyrrolidine]-1′-yl) ketone], for which the inhibition at 0.3 µM fell in the range of 70 to 100%.
`O=C(c1ccc(F)cn1)N1CCC2(CC(O)c3cc(-c4ccccc4)ccc32)C1` (stereo not drawn) [Example 84, (5-fluoropyridin-2-yl)(3-hydroxy-5-phenyl-2,3-dihydrospiro[indene-1,3′-pyrrolidine]-1′-yl) ketone]: the inhibition at 0.3 µM fell in the range of 25 to 50%.
